Bounds are passed on as bounds.

The results in this text go back to patent US6040149A, “Assay for identifying agents which act on the ceramide-activated protein kinase, kinase suppressor of ras, and methods of using said agents” (priority 1997, dated 2000).

Data set [1] deals with ceramide-activated protein kinase. The experiment in a line: Ceramide-activated protein kinase activity (EGFR peptide) in EL-4 cell fractions. The method, then:
Effect of IL-1β on ceramide-activated protein kinase activity. […] Homogenates were centrifuged at 500×g for 5 minutes to remove nuclei and at 200,000×g for 30 minutes to prepare microsomal membranes. Membranes were resuspended into homogenizing buffer (2.2 μg membrane protein μl^-1). For assay of kinase activity, the reaction mixture contained 20 μl of microsomal membrane, 40 μl EGFR peptide (4 mg ml^-1 in 25 mM Hepes, pH 7.4) and 100 μl buffer (50 mM HEPES, pH 7.4, 20 mM MgCl2). Phosphorylation was initiated at 22° C. by addition of 40 μl [γ-^32 P] ATP (100 μM final concentration) and terminated at the indicated times by addition of 40 μl of 0.5 M ATP in 90% formic acid. Phosphorylated peptide was eluted from a C18 Sep pak cartridge (Millipore), lyophilized, and resolved by C18 reverse phase HPLC using a linear gradient of acetonitrile. […] All assays were performed under conditions determined as linear for time and enzyme concentration. Enzyme activity was determined from the percent conversion of substrate to product and the specific radioactivity of [γ-^32 P] ATP. […] Values (mean±range) represent duplicate determinations from two experiments.
Activity was measured by the transfer of ^32 P from the γ-position of ATP to EGFR peptide (AA 663-681 of the EGFR). The effect of IL-1β on kinase activity was determined using microsomal membranes derived from cells stimulated with IL-1β.

Another data set deals with protein kinase C. The experiment in a line: Protein kinase C activity in EL-4 cells (lysine-rich histone phosphorylation). In kind it is cell-based, murine (EL-4 cells). To be noted: membrane or cytosolic fractions.
The next data set deals with YT cells. In words: Ceramide generation in YT cells (preliminary). It is filed as cell-based, human.
For the next data set, the system named is EL-4 cells. The experiment in a line: Sphingomyelin and ceramide levels in intact EL-4 cells. It is filed as cell-based, murine. As for the experimental part:
IL-1β effects on sphingomyelin levels in EL4 cells. Time course (A) and dose response (B). Cells were grown to growth arrest (1-1.5×10^6 cells ml^-1) in DME/Ham's F12 medium (1:1, v/v) containing 10% horse serum and for 48 hours [^3 H]choline (1 μCi ml^-1). On the day of an experiment, cells were resuspended back into the same medium at 10×10^6 cells ml^-1 and stimulated with 40 ng ml^-1 IL-1β for the indicated times (A) or for 30 minutes with increasing concentrations of IL-1β (B). Human IL-1β may be obtained using methods well known to those skilled in the art. Reactions were terminated with CHCl3 :CH3 OH:HCl (100:100:1) containing 10 mM EDTA (82). Lipids in the organic phase extract were dried under N2 and subjected to mild alkaline hydrolysis (0.1 M methanolic KOH for 1 hour at 37° C.) to remove glycerophospholipids. Sphingomyelin was resolved by thin-layer chromatography (TLC) using CHCl3 :CH3 OH:CH3 COOH:H2 O (60:30:8:5) as solvent, identified by iodine vapor staining, and quantified by liquid scintillation spectrometry. As previously reported, the use of [^3 H]choline as a measure of sphingomyelin content was validated by simultaneous phospholipid phosphorus measurements. Each value represents the mean±SEM of triplicate determinations from four experiments in (A), and one representative of four similar studies performed in triplicate in (B).
Effect of IL-1β on ceramide levels in EL-4 cells. Cells were stimulated as in FIG. 12 with IL-1β (40 ng ml^-1) and ceramide contained within the organic phase extract quantified enzymatically using the E. coli diacylglycerol kinase reaction. Lipids were resolved by TLC using CHCl3 :CH3 OH:CH3 COOH (65/15/5) as solvent, autoradiographed and quantified by liquid scintillation spectrometry. Each value represents the mean±SEM of triplicate determinations from 10 experiments.
The murine thymoma EL-4 cell line is a well-defined IL-1 responsive cell line that expresses functional IL-1 receptors. Upon stimulation with IL-1, these cells up-regulate the IL-2 receptor and secrete IL-2 [62]. Initial studies were designed to investigate the effects of IL-1β on cellular sphingomyelin content. Cells, grown in Dulbecco's Modified Eagle's (DME)/Ham's F-12 medium containing 10% horse serum and [^3 H]choline (1 μCi ml^-1), were resuspended back into the same medium at 10×10^6 cells ml^-1 and stimulated with IL-1β. IL-1β is commercially available.

The next data set relates to sphingomyelin pathway. The experiment in a line: Sphingomyelin, ceramide and CAP kinase activity in EL-4 cell-free system. It is filed as biochemical, murine (EL-4 cells). Particulars: IL-1β 10 ng ml^-1. The method, then:
IL-1β effects on sphingomyelin and ceramide levels (A) and ceramide-activated protein kinase activity (B) in a cell-free system. […] Thereafter, supernates (300 μg incubation^-1 in 25 μl) were added to a reaction mixture (total volume 250 μl) as described in FIG. 14. For studies measuring lipid levels, incubations were stopped by extraction of lipids into an organic phase and resolved as described in FIGS. 12 and 13. For studies measuring kinase activity, incubations contained EGFR peptide and [^32 P]ATP, and phosphorylated peptide was quantified as described in FIG. 14. Background activity was subtracted from each point. Values (mean) represent data from two experiments for sphingomyelin performed in triplicate, three experiments for ceramide performed in triplicate, and five experiments for ceramide-activated protein kinase activity performed in duplicate.
Early kinetics of activation of a potential signaling system provide some support that the pathway might be involved in the signaling process. However, signal transduction pathways are highly regulated and often interrelated. […] To provide additional support for tight coupling of the sphingomyelin pathway to activation of the IL-1β receptor, studies were performed with subcellular fractions derived from EL-4 cells. For these studies, supernates, collected after a low-speed centrifugation to remove nuclei, were first incubated with IL-1β for 10 minutes at 4° C. to permit formation of IL-1 receptor complexes. Thereafter, reactions were initiated by warming supernates to 22° C. in a reaction mixture containing Mg^2+ at pH 7.4. These conditions were adopted to allow for activation of endogenous neutral sphingomyelinase. For studies measuring kinase activity, reaction mixtures also contained [^32 P] ATP and EGFR peptide. […] In separate studies, a statistically significant reduction in sphingomyelin content (n=10) and elevation in ceramide content (n=6) were detected at 1 minute of stimulation (p<0.005 vs. control). […] These effects were quantitatively similar to those determined in the intact cells.

The mark [2] stands for this setting: p<0.005 vs. control at 1 minute.

As for IL-1β: Human IL-1β, in data set [1], the “ED50 (kinase activity)” value is given as “≈ 2 ng ml^-1”, the “concentration of maximal effect (kinase activity)” value turned out to be 10 ng/mL and the “effective concentration (kinase activity)” value came to 0.03 ng/mL. For the same substance, in data set [1] (IL-1β 10 ng ml^-1), the “onset of increase in kinase activity” value turned out to be 30 s and the “time of maximal kinase activity” value worked out at 2 min. The same substance displayed a kinase activity in data set [1] (IL-1β 10 ng ml^-1, from 5) of 11 pmol/min/mg. The “kinase activity, fold of control” value in data set [1] (IL-1β 10 ng ml^-1, microsomal membranes, p<0.005) is given as 2.1 fold of control. Moreover, in data set [1] (cytosolic fractions), the “cytosolic kinase activity toward EGFR peptide” value is given as “not enhanced”. Also, in the data set with EL4 cells (24 h), the “IL-2 secretion in combination with TPA” value was “stimulated secretion maximally”. Moreover, in the data set on EL4 cells (with TPA 20 ng ml^-1, 24 h, nd = not detectable, mean ± range), the “IL-2 secretion, +TPA” value came out at 261 ± 2. Also, the “protein kinase C activity” value with protein kinase C was “not enhanced”. In the data set on YT cells, the ceramide generation entry was “rapid generation of ceramide”. In addition, in the data set on EL-4 cells (30 minutes), the “ED50 (sphingomyelin hydrolysis)” value was “≈ 2 ng ml^-1”, the “concentration of maximal effect (sphingomyelin hydrolysis)” value turned out to be 10 ng/mL and the “effective concentration (sphingomyelin hydrolysis)” value is 0.01 ng/mL. Besides, in the data set on EL-4 cells (IL-1β), the content of phosphatidylcholine entry is listed as “unchanged”. Also, in the data set with EL-4 cells (IL-1β 40 ng ml^-1), the “onset of reduction in sphingomyelin content” value was not above 2 min. This substance also showed a ceramide content in the data set on EL-4 cells (IL-1β 40 ng ml^-1, 2 minutes, from 360, p<0.005) of 403 pmol 10^6 cells^-1. Further, the maximum ceramide content with EL-4 cells (IL-1β 40 ng ml^-1, 15 minutes, from 360) is given as 450 pmol 10^6 cells^-1. For the same substance, the sphingomyelin content in the data set with EL-4 cells (IL-1β 40 ng ml^-1, 30 minutes, baseline 800±14, mean±SEM, p<0.005) is listed as 648±16 pmol 10^6 cells^-1. In the data set on EL-4 cells (separate studies (n=4)), the “onset of ceramide increase” value was not above 30 s. In addition, in the data set with sphingomyelin pathway, the “ceramide-activated protein kinase activity, cell-free” value is reported as “increased”. Besides, in the data set with sphingomyelin pathway (setting [2]), the “ceramide content, cell-free” value was “quantitative increase in ceramide content” and the “sphingomyelin content, cell-free” value is “rapid reduction in sphingomyelin content”.
